Results published in patent US20230285598A1, “SULFOXONIUM YLIDE DERIVATIVES AS PROBES FOR CYSTEINE PROTEASE” (Takeda Pharmaceutical Company Limited, priority 2018, published 2023).

Target: cathepsin X (Mus musculus, UniProt Q9WUU7)
Experiment: Probe labeling of RAW264.7 cell lysates, SDS-PAGE in-gel fluorescence
Assay type: biochemical
Design: protein lysates prepared from RAW264.7 cells; host or cells: RAW264.7
Conditions: Example 6; 0.01-5 µM for 20 minutes
Protocol: ells were harvested by scraping, washed once with PBS, and resuspended in lysis buffer containing 50 mM citrate [pH 5.5], 0.5% CHAPS, 0.1% Triton X-100, and 4 mM DTT. Cells were incubated on ice for at least 10 minutes with intermittent vortexing followed by centrifugation ([…] at 4° C. or 5 minutes). Cleared supernatants were then transferred to a fresh tube and protein concentration was determined by BCA. Total protein (50 µg) was aliquoted into tubes in a final volume of 20 µl lysis buffer. Where indicated, JPM-OEt or MDV-590 were added from a 100x DMSO stock and incubated at 37° C. or 20 minutes prior to probe addition. The indicated concentration of probe was added from a 100x DMSO stock. Labeling was carried out at 37° C. or 20 minutes (unless otherwise indicated), and the reactions were quenched by the addition of 5x sample buffer (200 mM Tris-Cl [pH 6.8], 8% SDS, 0.04% bromophenol blue, 5% b-mercaptoethanol, and 40% glycerol). Samples were then boiled for five minutes and proteins were resolved on a 15% SDS-PAGE gel. The gels were scanned on a Typhoon 5 flatbed laser scanner at 633/670 nm excitation/emission to detect sCy5 fluorescence.
robe-labeled lysate from above (in sample buffer) was divided into input or pulldown (~50 µg total protein each). The input sample was stored at -20° C. The pulldown sample was diluted in 500 µl IP buffer (PBS [pH 7.4],[…], 1 mM EDTA). Goat anti-cathepsin X antibody (10 µl) was added along with 40 µl slurry of pre-washed Protein A/G agarose beads. Samples were rotated overnight at 4° C. Beads were then washed four times with IP buffer followed by a final wash in 0.9% NaCl. Beads were then resuspended in 2x sample buffer and boiled. The pulldown supernatants, alongside the input samples, were analysed by fluorescent SDS-PAGE as above.
In Example 3, the sulfoxonium ylide probe sCy5-Val-SY was incubated with protein lysates prepared from RAW264.7 cells, an immortalized mouse macrophage line that contains high levels of active cysteine cathepsins (Verdoes et al., 2013). Cells were lysed in citrate buffer (pH 5.5) to provide optimal conditions for cathepsin activation, and the probe was added • at 1 µM for 20 minutes • at various concentrations (0 µM, 0.01 µM, 0.05 µM, 0.1 µM, 0.5 µM or 1 µM) for 20 minutes; or • at 1 µM for varying times (0, 1, 2, 5, 10, 20, and 30 minutes).
Then the lysates were resolved by SDS-PAGE and the gel scanned for sCy5 fluorescence using a flatbed laser scanner.
The labeling profile of sCy5-Val-SY was compared to that of BMV109, the pan-cathepsin probe, by repeating the above experiment using BMV109 as the probe added at 1 µM for 20 minutes.
In Example 6, a small library of sulfoxonium ylide probes with varying amino acids in the P1 position as prepared in accordance with Example 1 was tested in RAW264.7 lysates, and compared to BMV109. Each probe was added with increasing probe concentrations of 0.01 µM, 0.05 µM, 0.1 µM, 0.5 µM, 1 µM and 5 µM for 20 minutes).

cathepsin X, sequence (Q9WUU7 64-306): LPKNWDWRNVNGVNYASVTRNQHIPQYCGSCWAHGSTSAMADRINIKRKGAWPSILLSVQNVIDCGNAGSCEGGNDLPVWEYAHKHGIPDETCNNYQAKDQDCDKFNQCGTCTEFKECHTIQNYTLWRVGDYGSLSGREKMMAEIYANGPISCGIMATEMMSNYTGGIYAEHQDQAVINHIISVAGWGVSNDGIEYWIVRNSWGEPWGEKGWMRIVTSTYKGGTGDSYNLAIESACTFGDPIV

CCCC[C@H](NC(=O)CCCCCN1/C(=C/C=C/C=C/C2=[N+](CC)c3ccc(S(=O)(=O)[O-])cc3C2(C)C)C(C)(C)c2cc(S(=O)(=O)O)ccc21)C(=O)C=S(C)(C)=O [sCy5-Nle-SY]
potency of labeling in RAW264.7 lysates: the most potent
